Assay results published in patent publication US11447482B1, “Imidazopyridine and oxazolopyridine derivatives and analogs thereof, methods of preparation thereof, methods of HIF-2A pathway inhibition, and induction of ferroptosis” (KUDA Therapeutics, Inc., priority 2019, dated 2022).

How the values were obtained:
Type in all cases: cell-based, human
HIF-2α = experiment: Western blot of treated 786-0 cells: HIF-2α; settings: 786-0 CCRCC cells, 24 hours
Procedure: (§1) Western blots were performed to determine the effects of the compounds on levels of HIF-2α and other relevant proteins. 786-0 (pVHL deficient clear cell kidney cancer cells) were purchased from ATCC were plated at 1×10E5 cells/well in 2 ml DMEM with 10% FBS/well in 6-well tissue culture plates. Cells were allowed to adhere overnight in a humidified incubator at 37° C. with 5% CO2, after which the appropriate concentrations of compounds in DMSO were added. DMSO concentrations were kept constant in all wells. After 24 hour's exposure to the compounds, cells were lysed and subjected to western blotting according to standard protocols (Polek, Talpaz et al. 2003). Antibodies for HIF-2α and Glyceraldehyde 3-Phosphate Dehydrogenase (GAPDH) were purchased from Cell Signaling Technology (Danvers, Mass.), whereas antibodies to iron responsive element binding protein 2 (IRP2) and Glutathione Peroxidase 4 (GPX4) were from Santa Cruz Biotechnology (Dallas, Tex.) and R&D Systems, Inc (Minneapolis, Minn.). Representative data in FIG. 3 show a dose-dependent effect of compounds in decreasing HIF-2α. Compounds also impact cellular iron sensing given by increased IRP2, which taken together indicate that cells sense decreased amounts of available iron. Representative data shown in FIG. 5 Part C show a dose dependent effect of the compounds on GPX4, which may indicate decreased resistance to ferroptosis.

IRP2 = experiment: Western blot of treated 786-0 cells: IRP2
Procedure: as §1

GPX4 = experiment: Western blot of treated 786-0 cells: GPX4; settings: higher concentrations of compound, FIG. 4 Part D
Procedure: as §1

786-0 CCRCC cells = experiment: ICP-MS of cellular iron, zinc and copper; settings: 786-0 cells, 24 hours, 1.5 μM KD002 or KD021, 2.5 μM KD025HCl, versus DMSO
Procedure: These studies were performed to determine the content of iron and other transition metals in cells after exposure the compounds described herein. 786-0 cells were seeded at 1.5 million cells/flask in T75 cm^2 flasks in DMEM+10% FBS, and allowed to adhere overnight. Cells were then treated with indicated concentrations of compounds in DMSO or DMSO alone (vehicle) for a further 24 hours, after which cells were detached by trypsinization, counted, washed twice in PBS and pelleted. Experiments were performed using three replicate T75 cm^2 flasks per condition. A 5:1 mixture of nitric acid (OPTIMA Grade, 70%, Fisher Scientific) and ultrapure hydrogen peroxide (ULTREX II, 30%, Fisher Scientific) was added to cell pellets. This mixture was allowed to digest overnight, heated until dry, and resuspended in 2% nitric acid for analysis using an Agilent 7900 ICP-MS (Agilent Technologies, Santa Clara, Calif.). Calibration standard solutions for determination of Fe were prepared from Agilent multi-element calibration standard-2A. An Agilent Environmental Calibration Standard was used as an independent control. PBS-only control digestions were used to measure background. Metal readings were normalized to cell number. Data obtained from these studies for three replicate readings (with SEM) are shown in FIG. 4, which show an increase in cellular iron (Fe) content after treatment with indicated compounds.

## COc1ccc(-c2nnc(Nc3nc4c(OC)nccc4[nH]3)o2)cc1OC [KD025HCl, N-(4-Methoxy-1H-imidazo[4,5-c]pyridin-2-yl)-5-(3,4-dimethoxyphenyl)-1,3,4-oxadiazol-2-amine]
HIF-2α
  HIF-2α protein relative to GAPDH (western blot): decreases
IRP2; 786-0 CCRCC cells, 24 hours
  IRP2 protein relative to GAPDH (western blot): increases
IRP2; 786-0 cells, higher concentrations of KD025HCl, FIG. 4 Part D
  IRP2 protein (western blot) at higher concentrations: decrease
GPX4
  GPX4 protein (western blot): decrease
786-0 CCRCC cells
  cellular copper (Cu) content (ICP-MS): increases
  cellular iron (Fe) content (ICP-MS): increases
  cellular zinc (Zn) content (ICP-MS): increases
